According to ChEMBL document CHEMBL1152135, “New synthesis and evaluation of enantiomers of 7-methyl-2-exo-(3'-iodo-5'-pyridinyl)-7-azabicyclo[2.2.1]heptane as stereoselective ligands for PET imaging of nicotinic acetylcholine receptors” (Bioorg Med Chem Lett, 2008):

Assay: Displacement of [3H]epibatine from nAChR in rat cortical membrane
Format: cell membranes

| Structure (SMILES) | Ki [nM] |
| --- | --- |
| CN1[C@@H]2CC[C@@H]1[C@@H](c1cncc(I)c1)C2 (stereo in doubt; (-)-5) | 1.68 |
| Ic1cncc([C@H]2C[C@H]3CC[C@H]2N3)c1 (stereo in doubt; (-)-4) | 0.045 |
| Clc1ccc(C2CC3CCC2N3)cn1 (stereo not given) [EPIBATIDINE] | 0.046 |
| Ic1cncc([C@H]2C[C@H]3CC[C@H]2N3)c1 (stereo in doubt; (+)-4) | 0.048 |
| CN1[C@@H]2CC[C@@H]1[C@@H](c1cncc(I)c1)C2 (stereo in doubt; (+)-5) | 0.055 |
